Test [1] deals with T1, Adenosine A2a receptor (human) membrane (Homo sapiens, UniProt P29274).
T1 construct: purchased PerkinElmer RBHA2AM400UA
Nature of the test: Determination of competitive inhibition constant (Ki) for adenosine A2a receptor, [3H]-CGS-21680 radioligand. It is filed as binding. The settings on record: for Ki: human A2a receptor membrane, 6.0 nM [3H]-CGS-21680, read-out: Ki(A2a); for Ki(A1)/Ki(A2a): selectivity ratio A1 over A2a. Summed up:
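Human A2a receptor membranes (5.0 μg/well) were incubated 2 h at room temperature with [3H]-CGS-21680 (working concentration 6.0 nM) in 50 mM Tris-HCl pH 7.4, 10 mM MgCl2, 1 mM EDTA. Bound label was collected on PEI-treated GF/C filters and scintillation counted. Inhibition was scaled between 0.5% DMSO and 1000 nM CGS-15943 controls, IC50 was fitted, and Ki = IC50/(1 + [ligand]/Kd).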

The target of the next test is T2, ADORA2a/CHOK1 cells (Homo sapiens, UniProt P29274).
T2 construct: host or cells: CHO-K1
T2 sequence (P29274 whole entry): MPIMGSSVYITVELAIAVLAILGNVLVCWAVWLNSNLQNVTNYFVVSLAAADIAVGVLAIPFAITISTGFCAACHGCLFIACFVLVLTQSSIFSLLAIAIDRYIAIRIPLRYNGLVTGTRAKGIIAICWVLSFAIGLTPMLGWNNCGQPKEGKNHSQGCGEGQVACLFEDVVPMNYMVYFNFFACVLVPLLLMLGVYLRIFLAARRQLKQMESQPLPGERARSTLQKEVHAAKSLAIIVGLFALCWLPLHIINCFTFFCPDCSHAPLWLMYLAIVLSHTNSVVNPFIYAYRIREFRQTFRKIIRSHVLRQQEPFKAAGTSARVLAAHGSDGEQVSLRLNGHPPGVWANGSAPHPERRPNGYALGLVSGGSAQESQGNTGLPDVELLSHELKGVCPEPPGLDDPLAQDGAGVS
Nature of the test: Inhibitory activity for ADORA2a/CHOK1 cells (cAMP detection, adenosine as agonist). It counts as cell-based. As to conditions: for inhibition at 0.1 µM: CHO-K1, 100 nM compound, read-out: Inhibition rate at 100 nM; for inhibition at 1 µM: CHO-K1, 1000 nM compound, read-out: Inhibition rate at 1000 nM. The protocol:
Test Example 2: Study on Inhibitory Activity for ADORA2a/CHOK1 Cells
ADORA2a/CHOK1 cells (Cobai, CBP71017).
FBS was added to Ham's F-12 medium to a concentration of 10% (v/v), Zeocin was added to a final concentration of 200 μg/mL, and Hygromycin B was added to a final concentration of 100 μg/mL, and the resulting mixture was stored at 4° C. for later use.
A certain amount of adenosine was precisely weighed and placed into a 1.5 mL EP tube, then a certain volume of cell culture medium was added, the resulting mixture was incubated at 37° C. for dissolution, thereby a 10 mM stock solution was prepared. The stock solution was diluted with cell culture medium at 1:1000 to get 10 μM adenosine solution.
The compound to be tested was dissolved in DMSO to form a 10 mM stock solution, and the stock solution was stored in a refrigerator at 4° C. for later use. The stock solution was diluted with the 10 μM of adenosine solution to 2000 nM or 200 nM for later test.
(1) CHO-K1 cells stably expressing ADORA2A receptor were cultured in a 37° C., 5% CO2 cell incubator. When the cell confluence reached about 80%, the cells were digested by trypsin, dispersed and counted; (2) the cell concentration was adjusted to 6×10^5 cells/mL according to the counting results; (3) the cells was inoculated into a white 384-well cell culture plate at 5 μL per well (about 3000 cells/well).
All groups were provided with multiple wells, the adenosine-free cell culture medium was added to the wells of the Blank group (5 μL/well); 10 μM adenosine solution was added to the wells of the Agonist group (5 μL/well); the diluted compound was added to the wells of the test compound group (5 μL/well). After the addition of the compound was completed, the 384-well plate was centrifuged at 2500 rpm for 30 seconds to fully mix the compound and the medium, then placed in a 25° C. incubator and incubated for 30 min.
A certain volume of cAMP-d2 was taken, and diluted by adding Lysis & Detection Buffer at the ratio of 1:5 to prepare Solution A.
A certain volume of cAMP-Cryptate was taken, and diluted by adding Lysis & Detection Buffer at the ratio of 1:5 to prepare Solution B.
(2) After 30 min of incubation in step 2 was completed, addition of detection solution was carried out. The 384-well plate was taken out, 5 μL of Solution A was added to each well, and then 5 μL of Solution B was added to each well, then the 384-well plate was covered with sealing membrane, centrifuged at 2500 rpm for 30 s (to fully mix the detection solution and medium), and incubated in a thermostat at 25° C. for 1 h.
After the incubation, the 384-well plate was taken out, and detected by PHERA Star FS to read data, detection wavelength: 620 nm/665 nm.
inhibition rate %=(1−(RCompound−RBlank)/(RAgonist−RBlank))*100%
wherein, RCompound represented the R Value of the test compound group, RAgonist represented the R value of the Agonist group, and RBlank represented the R value of the Blank group.

Structures are written as SMILES.

T1 sequence (P29274 whole entry): as above

Broadly, the Ki is a measure of affinity in units of concentration, obtained from inhibition or displacement. The term inhibition denotes the relative decrease from the control value, in per cent. `Cc1ncnc2ccc(-c3cnc(NC(=O)N4CCOCC4)nc3-c3ccc(F)cc3)cc12` [Compound 11, N-(4-(4-fluorophenyl)-5-(4-methylquinazolin-6-yl)pyrimidin-2-yl) morpholine-4-carboxamide]: in test [1], the Ki turned out to be 3.4 nM and the “Ki(A1)/Ki(A2a)” value was 59.9. For the same compound, on ADORA2a/CHOK1 cells, the inhibition at 0.1 µM stood at 72% and the inhibition at 1 µM came out at 112%.

`Cc1cc(-c2cnc(NC(=O)N3CCOCC3)nc2-c2ccc(F)cc2)cc(Cl)n1` [Compound 19, N-(5-(2-chloro-6-methylpyridin-4-yl)-4-(4-fluorophenyl)pyrimidin-2-yl) morpholine-4-carboxamide]: in test [1], the Ki worked out at 9.6 nM and the “Ki(A1)/Ki(A2a)” value is 146.3. Also, on ADORA2a/CHOK1 cells, the inhibition at 0.1 µM came out at 33.9% and the inhibition at 1 µM stood at 94.4%.

The record behind these values is US20210395226A1, “SUBSTITUTED ARYL COMPOUND AND PREPARATION METHOD THEREFOR AND USE THEREOF” (SICHUAN KELUN-BIOTECH BIOPHARMACEUTICAL CO., LTD., priority 2018, published 2021).
